Read-outs that look alike come from different tables or passages of the source.

Experiment [1] has as its system HMLER CD24− cells. Briefly: Cell proliferation and formation of mammospheres. Format: cell-based, Human. From the text: FIG. 2 is a representative phase contrast photomicrographs of mammospheres formed after 11 days in the absence of any added compound (Control) or in the presence of a defined amount of salinomycine, AM5, AM9 or AM13. […] The size of the mammospheres is correlated with progenitor cell proliferation, whereas the number of mammospheres formed after serial passages at clonal density is correlated with the self-renewal capacity of primitive Cancer Stem Cells. […]
FIG. 9 represents images of the third generation of mammospheres formed from individual HMLER CD24low cells treated during 7 days with the indicated drug. The size of the mammospheres is correlated with progenitor cell proliferation capacity, whereas the number of mammospheres formed after serial passages at clonal density is correlated with the self-renewal capacity of primitive Cancer Stem Cells.
AM5, AM9, AM13 and salinomycine were assessed for their capability to inhibit cell proliferation and formation of mammospheres. […]
AM5 and AM23 and salinomycine were assessed for their capability to inhibit cell proliferation and formation of mammospheres.

Experiment [2] has as its system HMLER CD24− cells. Kind of experiment: Cell viability assay (CellTiter-Blue), IC50 assessment. Format: cell-based, Human. To be noted: for IC50: Homo sapiens, read-out: IC50 CD24−; for activity against CD24 cells compared with salinomycine: comparison of the IC50 results. How it is done:
(§1) FIG. 1 represents viability of HMLER CD24− cells (full line) and HMLER CD24+ cells (dotted line) at different concentration of salinomycine (1A), AM5 […] or AM13 (1D).
(§2) Cell viability assay was carried out by plating 1000 cells per well in 96-well plates. NAC (2 mM, A9165 Sigma) or DFO (1 mM) were pretreated 2 hours prior to the compound treatment. CellTiter-Blue® Reagent (Promega; G3582) (20 μl/well) was added after 24, 48, or 72 hours treatment and cells were incubated for 1 hour before recording fluorescence (560(20)Ex/590(10)Em) using a Perkin Elmer Wallac 1420 Victor2 Microplate Reader.

The test system of the next experiment is HMLER CD24+ cells. The experiment is described as above. It counts as cell-based. To be noted: Homo sapiens, read-out: IC50 CD24+. How it is done: as §1, §2
Setting [3] is: HMLER CD24− cells, cell viability.
Where [4] appears, read: HMLER CD24+ cells, cell viability.

As to `CC(=O)O[C@H]1C(=O)[C@@]2(C)[C@H]([C@H](OC(=O)c3ccccc3)[C@]3(O)C[C@H](OC(=O)[C@H](O)[C@@H](NC(=O)c4ccccc4)c4ccccc4)C(C)=C1C3(C)C)[C@]1(OC(C)=O)CO[C@@H]1C[C@@H]2O` [paclitaxel, reference compound], the “effect against tumorsphere formation / CSC maintenance” value in the experiment with HMLER CD24− cells [1] is recorded as “poorly effective”.
Consider `CCCCCCCCCCCCN[C@@H]1C=C[C@]2(O[C@H]([C@@H](CC)C(=O)[C@@H](C)[C@@H](O)[C@H](C)C3O[C@@H](C(CC)C(=O)O)CC[C@@H]3C)[C@@H](C)C[C@H]2C)O[C@@]12CC[C@@](C)([C@H]1CC[C@](O)(CC)[C@H](C)O1)O2` (stereo partly drawn) [AM13, Sal-Dodecylamine], for which the IC50 (usually the concentration at which inhibition is half-maximal) with HMLER CD24− cells [2] (setting [3]) was determined as 72.7 nM; in the experiment on HMLER CD24+ cells (setting [4]), 3190 nM. Further, the “activity against CD24 cells compared with salinomycine” value (from here on “activity … compared with salinomycine”) in the experiment on HMLER CD24− cells [2] was “significantly improved activity”. For the same compound, the “inhibition of cell proliferation, efficacy in comparison with salinomycine” value in the experiment with HMLER CD24− cells [1] (at 30 nM) is recorded as “ten-fold improved efficacy”. In the experiment on HMLER CD24− cells [1] (mammospheres after 11 days, low nanomolar concentrations), the “number and size of mammosphere” value was “reduced the number and the size of mammosphere”.
Consider `C#CCN[C@H]1C=C[C@]2(O[C@H]([C@@H](CC)C(=O)[C@@H](C)[C@@H](O)[C@H](C)C3O[C@@H](C(CC)C(=O)O)CC[C@@H]3C)[C@@H](C)C[C@H]2C)O[C@@]12CC[C@@](C)([C@H]1CC[C@](O)(CC)[C@H](C)O1)O2` (stereo partly drawn) [AM17], for which the IC50 is 100 nM in the experiment on HMLER CD24− cells [2] (setting [3]) and 2000 nM in the experiment on HMLER CD24+ cells (setting [4]).
`CCC(C(=O)O)[C@H]1CC[C@H](C)C([C@@H](C)[C@H](O)[C@H](C)C(=O)[C@H](CC)[C@H]2O[C@]3(C=CC(=O)[C@]4(CC[C@@](C)([C@H]5CC[C@](O)(CC)[C@H](C)O5)O4)O3)[C@H](C)C[C@@H]2C)O1` (stereo partly drawn) [AM6]: the IC50 in the experiment with HMLER CD24− cells [2] amounted to 6180 nM; in the experiment on HMLER CD24+ cells it was 12800 nM.
For the compound `CCC(C(=O)O)[C@H]1CC[C@H](C)C([C@@H](C)[C@H](O)[C@H](C)C(=O)[C@H](CC)[C@H]2O[C@]3(C=C[C@@H](NOCc4ccccc4)[C@]4(CC[C@@](C)([C@H]5CC[C@](O)(CC)[C@H](C)O5)O4)O3)[C@H](C)C[C@@H]2C)O1` (stereo partly drawn) [AM8], the values for the 50% inhibitory concentration (IC50) with HMLER CD24− cells [2] (setting [3]) and with HMLER CD24+ cells (setting [4]) were 1020 nM and 8060 nM, respectively. For the same compound, the “activity … compared with salinomycine” value in the experiment on HMLER CD24− cells [2] is “significantly improved activity”.
Consider `C#CCN[C@@H]1C=C[C@]2(O[C@H]([C@@H](CC)C(=O)[C@@H](C)[C@@H](O)[C@H](C)C3O[C@@H](C(CC)C(=O)OCC#C)CC[C@@H]3C)[C@@H](C)C[C@H]2C)O[C@@]12CC[C@@](C)([C@H]1CC[C@](O)(CC)[C@H](C)O1)O2` (stereo partly drawn) [AM10], for which the IC50 with HMLER CD24− cells [2] (setting [3]) is 10000 nM; in the experiment with HMLER CD24+ cells (setting [4]), 19700 nM. Moreover, the “activity … compared with salinomycine” value in the experiment on HMLER CD24− cells [2] is on record as “lower efficiency than salinomycine”.
For the compound `CCC(C(=O)NO)[C@H]1CC[C@H](C)C([C@@H](C)[C@H](O)[C@H](C)C(=O)[C@H](CC)[C@H]2O[C@]3(C=C/C(=N\O)[C@]4(CC[C@@](C)([C@H]5CC[C@](O)(CC)[C@H](C)O5)O4)O3)[C@H](C)C[C@@H]2C)O1` (stereo partly drawn) [AM18], the results for the IC50 in the experiment with HMLER CD24− cells [2] (setting [3]) and in the experiment with HMLER CD24+ cells (setting [4]) were 100 nM and 2500 nM, respectively.
As for `CCCN[C@@H]1C=C[C@]2(O[C@H]([C@@H](CC)C(=O)[C@@H](C)[C@@H](O)[C@H](C)C3O[C@@H](C(CC)C(=O)O)CC[C@@H]3C)[C@@H](C)C[C@H]2C)O[C@@]12CC[C@@](C)([C@H]1CC[C@](O)(CC)[C@H](C)O1)O2` (stereo partly drawn) [AM21], the 50% inhibitory concentration (IC50) with HMLER CD24− cells [2] (setting [3]) was determined as 340 nM; in the experiment with HMLER CD24+ cells (setting [4]), 6500 nM.
The corresponding values for `CCC(C(=O)NO)[C@H]1CC[C@H](C)C([C@@H](C)[C@H](O)[C@H](C)C(=O)[C@H](CC)[C@H]2O[C@]3(C=C[C@@H](NC4CC4)[C@]4(CC[C@@](C)([C@H]5CC[C@](O)(CC)[C@H](C)O5)O4)O3)[C@H](C)C[C@@H]2C)O1` (stereo partly drawn) [AM28] are 6430 nM and 5830 nM.
With `C#CCCCN[C@@H]1C=C[C@]2(O[C@H]([C@@H](CC)C(=O)[C@@H](C)[C@@H](O)[C@H](C)C3O[C@@H](C(CC)C(=O)O)CC[C@@H]3C)[C@@H](C)C[C@H]2C)O[C@@]12CC[C@@](C)([C@H]1CC[C@](O)(CC)[C@H](C)O1)O2` (stereo partly drawn) [AM16], the IC50 with HMLER CD24− cells [2] (setting [3]) came to 300 nM; in the experiment with HMLER CD24+ cells (setting [4]) it was 1170 nM.
The corresponding values for `CCC(C(=O)O)[C@H]1CC[C@H](C)C([C@@H](C)[C@H](O)[C@H](C)C(=O)[C@H](CC)[C@H]2O[C@]3(C=C[C@@H](NC4CCC4)[C@]4(CC[C@@](C)([C@H]5CC[C@](O)(CC)[C@H](C)O5)O4)O3)[C@H](C)C[C@@H]2C)O1` (stereo partly drawn) [AM24] are 107 nM and 1400 nM.
The corresponding values for `C=CCN[C@@H]1C=C[C@]2(O[C@H]([C@@H](CC)C(=O)[C@@H](C)[C@@H](O)[C@H](C)C3O[C@@H](C(CC)C(=O)O)CC[C@@H]3C)[C@@H](C)C[C@H]2C)O[C@@]12CC[C@@](C)([C@H]1CC[C@](O)(CC)[C@H](C)O1)O2` (stereo partly drawn) [AM22] are 300 nM and 1530 nM.
For the compound `C#CCN[C@@H]1C=C[C@]2(O[C@H]([C@@H](CC)C(=O)[C@@H](C)[C@@H](O)[C@H](C)C3O[C@@H](C(CC)C(=O)OC)CC[C@@H]3C)[C@@H](C)C[C@H]2C)O[C@@]12CC[C@@](C)([C@H]1CC[C@](O)(CC)[C@H](C)O1)O2` (stereo partly drawn) [AM9, Me-Sal-propargylamine], the IC50 stood at 11800 nM in the experiment on HMLER CD24− cells [2] (setting [3]) and 22000 nM in the experiment on HMLER CD24+ cells (setting [4]). Besides, the “activity … compared with salinomycine” value in the experiment on HMLER CD24− cells [2] is given as “lower efficiency than salinomycine”. Besides, the “effect against tumorsphere formation / CSC maintenance” value with HMLER CD24− cells [1] is “ineffective”. The “inhibition of cell proliferation” value in the experiment on HMLER CD24− cells [1] (at 500 nM) is “did not inhibit cell proliferation”.
On to `CCCCCCN[C@@H]1C=C[C@]2(O[C@H]([C@@H](CC)C(=O)[C@@H](C)[C@@H](O)[C@H](C)C3O[C@@H](C(CC)C(=O)O)CC[C@@H]3C)[C@@H](C)C[C@H]2C)O[C@@]12CC[C@@](C)([C@H]1CC[C@](O)(CC)[C@H](C)O1)O2` (stereo partly drawn) [AM12], for which the values for the IC50 with HMLER CD24− cells [2] (setting [3]) and with HMLER CD24+ cells (setting [4]) were 1790 nM and 6920 nM, respectively. Further, the “activity … compared with salinomycine” value in the experiment with HMLER CD24− cells [2] is “significantly improved activity”.
For the compound `CCC(C(=O)O)[C@H]1CC[C@H](C)C([C@@H](C)[C@H](O)[C@H](C)C(=O)[C@H](CC)[C@H]2O[C@]3(C=C[C@@H](NCc4ccccc4)[C@]4(CC[C@@](C)([C@H]5CC[C@](O)(CC)[C@H](C)O5)O4)O3)[C@H](C)C[C@@H]2C)O1` (stereo partly drawn) [AM11], the IC50 with HMLER CD24− cells [2] (setting [3]) turned out to be 800 nM; with HMLER CD24+ cells (setting [4]), 6700 nM. For the same compound, the “activity … compared with salinomycine” value with HMLER CD24− cells [2] is given as “significantly improved activity”.
Take `CCC(C(=O)OC)[C@H]1CC[C@H](C)C([C@@H](C)[C@H](O)[C@H](C)C(=O)[C@H](CC)[C@H]2O[C@]3(C=C[C@@H](OC(C)=O)[C@]4(CC[C@@](C)([C@H]5CC[C@](O)(CC)[C@H](C)O5)O4)O3)[C@H](C)C[C@@H]2C)O1` (stereo partly drawn) [AM7]: the IC50 came to 7250 nM in the experiment with HMLER CD24− cells [2] (setting [3]) and 12500 nM in the experiment on HMLER CD24+ cells (setting [4]).
The matching figures for `CCC(C(=O)O)[C@H]1CC[C@H](C)C([C@@H](C)[C@H](O)[C@H](C)C(=O)[C@H](CC)[C@H]2O[C@]3(C=C[C@@H](NC4CCCC4)[C@]4(CC[C@@](C)([C@H]5CC[C@](O)(CC)[C@H](C)O5)O4)O3)[C@H](C)C[C@@H]2C)O1` (stereo partly drawn) [AM25]: 108 nM and 1360 nM.
The corresponding values for `CCC(C(=O)O)[C@H]1CC[C@H](C)C([C@@H](C)[C@H](O)[C@H](C)C(=O)[C@H](CC)[C@H]2O[C@]3(CC[C@@H](NCC(C)C)[C@]4(CC[C@@](C)([C@H]5CC[C@](O)(CC)[C@H](C)O5)O4)O3)[C@H](C)C[C@@H]2C)O1` (stereo partly drawn) [AM26] are 1150 nM and 10100 nM.

Source of the values: US10287298B2, “Nitrogen-containing analogs of salinomycin, synthesis and use against cancer stem cells and malaria” (Centre National de la Recherche Scientifique (CNRS), priority 2014, dated 2019).
